Experimental data published in ChEMBL document CHEMBL4334508, “Oleanolic Acid Derivatives as Potential Inhibitors of HIV-1 Protease” (J Nat Prod, 2019).
pIC50: −log10 of the molar value.

Biological target: Protease (Human immunodeficiency virus 1, UniProt Q9YQ12)
Experiment: Inhibition of HIV1 protease expressed in Escherichia coli using Abz-Ala-Arg-Val-Nle-Tyr(NO2)-Glu-Ala-Nle-NH2 peptide as substrate by FRET assay

Sequence of Protease (Q9YQ12 whole entry): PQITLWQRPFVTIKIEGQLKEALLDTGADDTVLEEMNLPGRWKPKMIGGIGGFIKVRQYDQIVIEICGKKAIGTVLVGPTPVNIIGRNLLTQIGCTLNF

CCC(=O)O[C@H]1CC[C@]2(C)[C@H]3CC=C4[C@@H]5CC(C)(C)CC[C@]5(C(=O)NCCCCCC(=O)O)CC[C@@]4(C)[C@]3(C)CC[C@H]2C1(C)C
pIC50: < 4.30

CC(C)[C@H](NC(=O)CCCNC(=O)[C@]12CCC(C)(C)C[C@H]1C1=CC[C@@H]3[C@@]4(C)CC[C@H](OC(=O)c5ccccc5)C(C)(C)[C@@H]4CC[C@@]3(C)[C@]1(C)CC2)C(=O)O
pIC50: < 4.30

CCC(=O)O[C@H]1CC[C@]2(C)[C@H]3CC=C4[C@@H]5CC(C)(C)CC[C@]5(C(=O)NCCCCCCCCCCC(=O)NCC(=O)O)CC[C@@]4(C)[C@]3(C)CC[C@H]2C1(C)C
pIC50: < 4.30

CCCCCCCCCCCC(=O)O[C@H]1CC[C@]2(C)[C@H]3CC=C4[C@@H]5CC(C)(C)CC[C@]5(C(=O)NCCCCCCCCCCC(=O)O)CC[C@@]4(C)[C@]3(C)CC[C@H]2C1(C)C
pIC50: < 4.30

CC1(C)CC[C@]2(C(=O)NCCCCCCCCCCC(=O)NCC(=O)O)CC[C@]3(C)C(=CC[C@@H]4[C@@]5(C)CC[C@H](OC(=O)c6ccccc6)C(C)(C)[C@@H]5CC[C@]43C)[C@@H]2C1
pIC50: < 4.30

CC(=O)O[C@H]1CC[C@]2(C)[C@H]3CC=C4[C@@H]5CC(C)(C)CC[C@]5(C(=O)NCCCCCCCCCCC(=O)N[C@H](C(=O)O)C(C)C)CC[C@@]4(C)[C@]3(C)CC[C@H]2C1(C)C
pIC50: < 4.30

CCCCCC(=O)O[C@H]1CC[C@]2(C)[C@H]3CC=C4[C@@H]5CC(C)(C)CC[C@]5(C(=O)NCCCCCC(=O)O)CC[C@@]4(C)[C@]3(C)CC[C@H]2C1(C)C
pIC50: < 4.30

CCCCCC(=O)O[C@H]1CC[C@]2(C)[C@H]3CC=C4[C@@H]5CC(C)(C)CC[C@]5(C(=O)NCCCCCCCCCCC(=O)N[C@H](C(=O)O)C(C)C)CC[C@@]4(C)[C@]3(C)CC[C@H]2C1(C)C
pIC50: < 4.30

CCC(=O)O[C@H]1CC[C@]2(C)[C@H]3CC=C4[C@@H]5CC(C)(C)CC[C@]5(C(=O)NCCCC(=O)N[C@H](C(=O)O)C(C)C)CC[C@@]4(C)[C@]3(C)CC[C@H]2C1(C)C
pIC50: < 4.30

CC1(C)CC[C@]2(C(=O)NCCCC(=O)NCC(=O)O)CC[C@]3(C)C(=CC[C@@H]4[C@@]5(C)CC[C@H](OC(=O)CCC(=O)O)C(C)(C)[C@@H]5CC[C@]43C)[C@@H]2C1
pIC50: < 4.30

CCCCCC(=O)O[C@H]1CC[C@]2(C)[C@H]3CC=C4[C@@H]5CC(C)(C)CC[C@]5(C(=O)NCCCCCC(=O)NCC(=O)O)CC[C@@]4(C)[C@]3(C)CC[C@H]2C1(C)C
pIC50: < 4.30

CC(=O)O[C@H]1CC[C@]2(C)[C@H]3CC=C4[C@@H]5CC(C)(C)CC[C@]5(C(=O)NCCCCCC(=O)O)CC[C@@]4(C)[C@]3(C)CC[C@H]2C1(C)C
pIC50: < 4.30

CCC(=O)O[C@H]1CC[C@]2(C)[C@H]3CC=C4[C@@H]5CC(C)(C)CC[C@]5(C(=O)NCCCCCCCCCCC(=O)N[C@H](C(=O)O)C(C)C)CC[C@@]4(C)[C@]3(C)CC[C@H]2C1(C)C
pIC50: < 4.30

CCC(=O)O[C@H]1CC[C@]2(C)[C@H]3CC=C4[C@@H]5CC(C)(C)CC[C@]5(C(=O)NCCCC(=O)N[C@@H](C)C(=O)O)CC[C@@]4(C)[C@]3(C)CC[C@H]2C1(C)C
pIC50: < 4.30

CC1(C)CC[C@]2(C(=O)NCCCC(=O)O)CC[C@]3(C)C(=CC[C@@H]4[C@@]5(C)CC[C@H](OC(=O)CCC(=O)O)C(C)(C)[C@@H]5CC[C@]43C)[C@@H]2C1
pIC50: 4.75

CCCCCCCCCCCC(=O)O[C@H]1CC[C@]2(C)[C@H]3CC=C4[C@@H]5CC(C)(C)CC[C@]5(C(=O)NCCCCCCCCCCC(=O)N[C@@H](C)C(=O)O)CC[C@@]4(C)[C@]3(C)CC[C@H]2C1(C)C
pIC50: < 4.30

CCC(=O)O[C@H]1CC[C@]2(C)[C@H]3CC=C4[C@@H]5CC(C)(C)CC[C@]5(C(=O)NCCCCCC(=O)NCC(=O)O)CC[C@@]4(C)[C@]3(C)CC[C@H]2C1(C)C
pIC50: < 4.30

CC1(C)CC[C@]2(C(=O)NCCCCCCCCCCC(=O)O)CC[C@]3(C)C(=CC[C@@H]4[C@@]5(C)CC[C@H](OC(=O)c6ccccc6)C(C)(C)[C@@H]5CC[C@]43C)[C@@H]2C1
pIC50: < 4.30

C[C@H](NC(=O)CCCCCCCCCCNC(=O)[C@]12CCC(C)(C)C[C@H]1C1=CC[C@@H]3[C@@]4(C)CC[C@H](OC(=O)CC(C)(C)CC(=O)O)C(C)(C)[C@@H]4CC[C@@]3(C)[C@]1(C)CC2)C(=O)O
pIC50: < 4.30

CC(=O)O[C@H]1CC[C@]2(C)[C@H]3CC=C4[C@@H]5CC(C)(C)CC[C@]5(C(=O)NCCCC(=O)N[C@H](C(=O)O)C(C)C)CC[C@@]4(C)[C@]3(C)CC[C@H]2C1(C)C
pIC50: < 4.30

CC(=O)O[C@H]1CC[C@]2(C)[C@H]3CC=C4[C@@H]5CC(C)(C)CC[C@]5(C(=O)NCCCC(=O)O)CC[C@@]4(C)[C@]3(C)CC[C@H]2C1(C)C
pIC50: 4.49

CCCC(=O)O[C@H]1CC[C@]2(C)[C@H]3CC=C4[C@@H]5CC(C)(C)CC[C@]5(C(=O)NCCCCCC(=O)N[C@H](C(=O)O)C(C)C)CC[C@@]4(C)[C@]3(C)CC[C@H]2C1(C)C
pIC50: < 4.30

CC(C)[C@H](NC(=O)CCCCCCCCCCNC(=O)[C@]12CCC(C)(C)C[C@H]1C1=CC[C@@H]3[C@@]4(C)CC[C@H](OC(=O)c5ccccc5C(=O)O)C(C)(C)[C@@H]4CC[C@@]3(C)[C@]1(C)CC2)C(=O)O
pIC50: 5.92

CC(C)[C@H](NC(=O)CCCCCNC(=O)[C@]12CCC(C)(C)C[C@H]1C1=CC[C@@H]3[C@@]4(C)CC[C@H](OC(=O)CCCC(=O)O)C(C)(C)[C@@H]4CC[C@@]3(C)[C@]1(C)CC2)C(=O)O
pIC50: 4.75
